These results are taken from patent US7271195B2, “Carbonyl compounds as inhibitors of histone deacetylase for the treatment of disease” (Kalypsys, Inc., priority 2003, dated 2007).

pIC50: −log10 of the molar value.

Experiment [1] relates to HDAC in cells (cellular histone acetylation levels). Briefly: Cellular histone hyperacetylation assay (cytoblot), cellular HDAC inhibition. The note with it: for Cellular IC50 / pIC50: "active" = inhibitory activity but cellular IC50 could not be determined; for Emax: maximum inhibition, read-out: % Max. Inhibition (cellular). It counts as cell-based. On the procedure:
Cellular Histone Hyperacetylation Assays:
These two secondary assays evaluates a compound's ability to inhibit HDAC in cells by measuring cellular histone acetylation levels. The cytoblot facilitates quantitative EC50 information for cellular HDAC inhibition. Transformed cell lines (e.g. HeLa, A549, MCF-7) are cultured under standard media and culture conditions prior to plating.
Cells (approx. 2,500/well) are allowed to adhere 10-24 hours to wells of a 384-well Greiner PS assay plate in media containing 1-5% serum. Cells are treated with appropriate compound and specific concentrations for 0 to 24 hours. Cells are washed once with PBS (60 ul) and then fixed (95% ethanol, 5% acetic acid or 2% PFA) for 1 minute at RT (30 ul). Cells are blocked with 1% BSA for 1 hour and washed and stained with antibody (e.g. anti-Acetylated Histone H3, Upstate Biotechnology), followed by washing and incubation with an appropriate secondary antibody conjugated to HRP or fluorophore. For luminescence assays, signal is generated using Luminol substrate (Santa Cruz Biotechnology) and detected using an Aquest plate reader (Molecular Devices).

In the next experiment the test system is T1, HDAC.
T1 construct: in vitro IC50; other: in vitro HDAC enzyme source
In words: In vitro HDAC-inhibition assay (Fluor de Lys fluorescent substrate). It counts as biochemical. The following applies: for pIC50: in vitro HDAC enzyme source; for % Max Inhibition (in vitro): maximum inhibition. How it is done: In vitro HDAC-inhibition Assay:
This assay measures a compound's ability to inhibit acetyl-lysine deacetylation in vitro and was used as both a primary screening method as well as for IC50 determinations of confirmed inhibitors. The assay is performed in vitro using an HDAC enzyme source (e.g. partially purified nuclear extract or immunopurified HDAC complexes) and a proprietary fluorescent substrate/developer system (HDAC Quantizyme Fluor de Lys Fluorescent Activity Assay, BIOMOL). The assay is run in 1,536-well Greiner white-bottom plates using the following volumes and order of addition:
Step 1: Enzyme (2.5 ul) source added to plate (from refrigerated container) • Step 2: Compounds (50 nl) added with pin transfer device • Step 3: Fluor de Lys (2.5 ul) substrate added, incubate at RT, 30 minutes • Step 4: Developer (5 ul) solution is added (containing TSA), to stop reaction • Step 5: Plate Reader—data collection
The deacetylated fluorophore is excited with 360 nm light and the emitted light (460 nm) is detected on an automated fluorometric plate reader (Aquest, Molecular Devices).

With `N#CSCC(=O)c1ccccc1` [Compound 1, 1-Phenyl-2-thiocyanato-ethanone], the “Cellular IC50” value in experiment [1] is reported as “active”. For the same compound, in the experiment with HDAC, the pIC50 is 5.00 to 6.00 and the “% Max Inhibition (in vitro)” value is reported as more than 75%.

Regarding `N#CSCC(=O)c1ccc(F)c(F)c1` [Compound 2], the “Cellular IC50” value in experiment [1] is listed as “active”. In the experiment with HDAC, the pIC50 was more than 6.00 and the “% Max Inhibition (in vitro)” value is more than 75%.

Regarding `N#CSCC(=O)c1ccc(Cl)c(Cl)c1` [Compound 3], in experiment [1], the pIC50 was 5.00 to 6.00 and the Emax is 104%. In addition, in the experiment with HDAC, the pIC50 is more than 6.00 and the “% Max Inhibition (in vitro)” value is given as more than 75%.

Take `Cc1cc(C(=O)CSC#N)ccc1Cl` [Compound 4]: in experiment [1], the pIC50 was 5.00 to 6.00 and the Emax was more than 75%. For the same compound, in the experiment on HDAC, the pIC50 was more than 6.00 and the “% Max Inhibition (in vitro)” value is more than 75%.

As for `N#CSCC(=O)c1ccc2c(c1)OCCO2` [Compound 5], the “Cellular IC50” value in experiment [1] is listed as “active”. For the same compound, in the experiment with HDAC, the pIC50 is more than 6.00 and the “% Max Inhibition (in vitro)” value is recorded as more than 75%.

In the case of `N#CSCC(=O)c1ccc(Cl)cc1` [Compound 6], in experiment [1], the pIC50 is 5.00 to 6.00 and the Emax was more than 75%. For the same compound, in the experiment on HDAC, the pIC50 is more than 6.00 and the “% Max Inhibition (in vitro)” value is more than 75%.

Turning to `CC(=O)Nc1ccc(C(=O)CSC#N)cc1` [Compound 7], in experiment [1], the pIC50 is 5.00 to 6.00 and the Emax is more than 75%. In the experiment with HDAC, the pIC50 was more than 6.00 and the “% Max Inhibition (in vitro)” value is reported as more than 75%.

Take `N#CSCC(=O)c1cccc(Br)c1` [Compound 8]: the “Cellular IC50” value in experiment [1] is “active”. Besides, in the experiment on HDAC, the pIC50 was more than 6.00 and the “% Max Inhibition (in vitro)” value is more than 75%.

In the case of `COc1cccc(C(=O)CSC#N)c1` [Compound 9], the “Cellular IC50” value in experiment [1] was “active”. Moreover, in the experiment with HDAC, the pIC50 is more than 6.00 and the “% Max Inhibition (in vitro)” value is listed as more than 75%.

Regarding `COc1ccc(C(=O)CSC#N)cc1` [Compound 10], the “Cellular IC50” value in experiment [1] was “active”. Also, in the experiment on HDAC, the pIC50 is 5.00 to 6.00 and the “% Max Inhibition (in vitro)” value is on record as more than 75%.

With `N#CSCC(=O)c1ccc(N2CCCC2)cc1` [Compound 11], the “Cellular IC50” value in experiment [1] is on record as “active”. Further, in the experiment with HDAC, the negative-log IC50 (pIC50) is 5.00 to 6.00 and the “% Max Inhibition (in vitro)” value is given as more than 50%.

For the compound `COc1ccc(C(=O)CSC#N)cc1OC` [Compound 12], in the experiment on HDAC, the pIC50 was 5.00 to 6.00 and the “% Max Inhibition (in vitro)” value is reported as more than 75%.

For the compound `CCN(CC)c1ccc(C(=O)CSC#N)cc1` [Compound 13], the “Cellular IC50” value in experiment [1] is “active”. In addition, in the experiment on HDAC, the pIC50 is 5.00 to 6.00 and the “% Max Inhibition (in vitro)” value was more than 75%.

As to `O=C(CSC1=NCCS1)c1ccccc1` [Compound 14, 2-(4,5-Dihydro-thiazol-2-ylsulfanyl)-1-phenyl-ethanone], in experiment [1], the pIC50 is less than 5.00 and the Emax was less than 50%. In addition, in the experiment on HDAC, the negative-log IC50 (pIC50) is less than 5.00 and the “% Max Inhibition (in vitro)” value is more than 75%.

Regarding `O=C(CSC1=NCCS1)c1ccc(Cl)c(Cl)c1` [Compound 15], in experiment [1], the pIC50 was 5.00 to 6.00 and the Emax is more than 75%. Also, in the experiment with HDAC, the pIC50 is 5.00 to 6.00 and the “% Max Inhibition (in vitro)” value is recorded as more than 75%.

On to `O=C(CSC1=NCCS1)c1cccc(Br)c1` [Compound 16], for which, in experiment [1], the “Cellular IC50” value is reported as “active”. Also, in the experiment on HDAC, the negative logarithm of the IC50 (pIC50) is 5.00 to 6.00 and the “% Max Inhibition (in vitro)” value was more than 75%.

For the compound `O=C(CSC1=NCCS1)c1ccc(Cl)cc1` [Compound 17], the “Cellular IC50” value in experiment [1] is recorded as “active”. Besides, in the experiment on HDAC, the pIC50 is less than 5.00 and the “% Max Inhibition (in vitro)” value is reported as more than 75%.

In the case of `O=C(CSC1=NCCS1)c1ccc(Br)cc1` [Compound 18], the “Cellular IC50” value in experiment [1] is on record as “active”. For the same compound, in the experiment with HDAC, the negative-log IC50 (pIC50) was less than 5.00 and the “% Max Inhibition (in vitro)” value was more than 75%.

As for `C[C@@H]1NC(=O)[C@H]2CCCN2C(=O)[C@H](CCCCCC(=O)[C@@H]2CO2)NC(=O)[C@@H](C)NC1=O` [HC-toxin, reference compound], in the experiment on HDAC, the pIC50 is more than 6.00 and the “% Max Inhibition (in vitro)” value was more than 75%.
